For the test, the target named is T1, CCDC6-RET fusion expressing papillary thyroid carcinoma (TPC-1) cell line (Homo sapiens, UniProt P07949).
T1 construct: RET protein abundance (and therefore degradation) directly corresponds to luminescence intensity; CCDC6 (fusion partner, N-terminal part); endogenous in cells; host or cells: TPC-1 (papillary thyroid carcinoma), parental; the other entry of the earlier key: CCDC6 (Q16204, Coiled-coil domain-containing protein 6)
T1 sequence (P07949 with tags, fused parts or gaps): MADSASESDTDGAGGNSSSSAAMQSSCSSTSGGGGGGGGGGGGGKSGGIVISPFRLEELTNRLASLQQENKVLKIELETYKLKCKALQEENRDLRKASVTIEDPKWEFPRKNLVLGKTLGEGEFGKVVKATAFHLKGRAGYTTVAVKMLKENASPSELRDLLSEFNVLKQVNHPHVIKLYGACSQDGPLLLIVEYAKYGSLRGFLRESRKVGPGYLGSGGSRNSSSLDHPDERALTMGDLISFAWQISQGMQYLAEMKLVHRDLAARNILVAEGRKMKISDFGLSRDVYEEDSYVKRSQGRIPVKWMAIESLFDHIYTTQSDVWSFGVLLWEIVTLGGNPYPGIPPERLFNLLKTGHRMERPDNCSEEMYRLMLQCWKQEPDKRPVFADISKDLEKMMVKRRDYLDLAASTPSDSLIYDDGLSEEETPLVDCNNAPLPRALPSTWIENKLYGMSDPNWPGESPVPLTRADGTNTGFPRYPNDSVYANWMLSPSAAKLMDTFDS
Put plainly: Cellular RET degradation assay (AlphaLISA Surefire Ultra, tRET) in TPC-1/CCDC6-RET cells. The format is cell-based. The conditions noted are these: TPC1, maximum % degradation (YMax) from 4-parameter logistic fit, parental TPC-1/CCDC6-RET cells, 24 hrs treatment, read-out: Cell Density TPC-1/CCDC6-RET YMax (%). Here is the method: Cellular RET degradation compound potency was determined using the bead-based luminescent amplification assay—AlphaLISA Surefire Ultra Detection Kit (Perkin-Elmer). The CCDC6-RET fusion expressing papillary thyroid carcinoma (TPC-1) cell line was selected for screening of potential degraders: Parental (TPC-1/CCDC6-RET). Cells were plated in 384 well culture plates (Greiner Bio-One) at 10,000 cells/well in 50ul/well DMEM (Fisher Scientific) with 2% FBS serum (Gibco). After cellular adhesion (4 hrs), cells were treated with compound by dispensing 25nl of serially diluted compound (1:3 dilution: 1 ipoint) directly into the cell culture wells using an Echo-655 acoustic liquid dispenser (Beckman). Low normalization wells were media only and high normalization wells were cells treated with DMSO only. Treated cell plates were placed in an incubator at 37C and 5% CO2 for 24 hrs. At 24 hrs, cell media was removed by a FELIX automated liquid hander (Analytik Jena) and 25ul of cell lysis buffer (provided in AlphaLisa kit) was added to each well. 5ul cell lysate were transferred into a 384-well microplate (Perkin Elmer) before addition of 2.5ul AlphaLISA Acceptor Bead mix. The plates were sealed and kept at room temperature for 1 hr before addition of donor bead mixture. Donor bead addition was performed in the dark and incubated for >1 hr before AlphaLISA luminescence was measured on an Envision plate reader with an Alphascreen aperture at RT (excitation 680 nm, emission 615 nm). RET protein abundance (and therefore degradation) directly corresponds to luminescence intensity.
Intensities were normalized relative to the average values from 16 wells containing media alone (blank-low) and 16 wells containing cells +DMSO (high). % Degradation for each well was determined using the standard equation, where
DC50 (IC50) values for each compound tested are calculated by analyzing plots of % degradation versus compound concentration, and fitting to the standard 4-parameter logistic curve where,
Top and bottom are the % degradation at infinitely large and infinitely small compound concentrations, respectively, while Halfmax is the compound concentration yielding % degradation corresponding tob½ Top-Bottom, and N is the Hill coefficient. DC50 values are calculated according to the relationship,
Compound replicates were performed in independent assays. Maximum degradation (YMax) was defined as the maximal % degradation value from the 4-parameter logistic equation, as previously described.
The half-maximal degradation concentration (DC50) and % degradation response (Ymax) are included in Table 3.
In general terms: Alpha assays give light when donor and acceptor beads are brought close together.
Take `COCc1ccc(NC(=O)c2c(C#CC3CCN(C(=O)CCCCCCN4CCN(c5ccc6c(c5)CN(C5CCC(=O)NC5=O)C6=O)CC4)CC3)c(C(C)C)n3ncnc(N)c23)cc1` (stereo not shown) [Example 1]: the Dmax amounted to 84.5%.
Consider `COCc1ccc(NC(=O)c2c(C#CC3CCN(C(=O)CCCCCCN4CCC(c5ccc6c(c5)CN(C5CCC(=O)NC5=O)C6=O)CC4)CC3)c(C(C)C)n3ncnc(N)c23)cc1` (stereo not shown) [Example 2, 4-amino-6-((1-(7-(4-(2-(2,6-dioxopiperidin-3-yl)-1-oxoisoindolin-5-yl)piperidin-1-yl)heptanoyl)piperidin-4-yl)ethynyl)-7-isopropyl-N-(4-(methoxymethyl)phenyl)pyrrolo[2,1-f][1,2,4]triazine-5-carboxamide], for which the Dmax was 87.4%.
For `COCc1ccc(NC(=O)c2c(C#CC3CCN(C(=O)CCCCCCN4CCN(c5ccc6c(c5)C(=O)N(C5CCC(=O)NC5=O)C6)CC4)CC3)c(C(C)C)n3ncnc(N)c23)cc1` (stereo not shown) [Example 3, 4-amino-6-((1-(7-(4-(2-(2,6-dioxopiperidin-3-yl)-3-oxoisoindolin-5-yl)piperazin-1-yl)heptanoyl)piperidin-4-yl)ethynyl)-7-isopropyl-N-(4-(methoxymethyl)phenyl)pyrrolo[2,1-f][1,2,4]triazine-5-carboxamide] the value was 91.8%; for `COCc1ccc(NC(=O)c2c(C#CC3CCN(C(=O)CCCCCCN4CCC(c5ccc6c(c5)C(=O)N(C5CCC(=O)NC5=O)C6)CC4)CC3)c(C(C)C)n3ncnc(N)c23)cc1` (stereo not shown) [Example 4, 4-amino-6-((1-(7-(4-(2-(2,6-dioxopiperidin-3-yl)-3-oxoisoindolin-5-yl)piperidin-1-yl)heptanoyl)piperidin-4-yl)ethynyl)-7-isopropyl-N-(4-(methoxymethyl)phenyl)pyrrolo[2,1-f][1,2,4]triazine-5-carboxamide], 97.6%.
For `COCc1ccc(NC(=O)c2c(C#CC3CCN(C(=O)CCCCN4CCN(c5ccc6c(c5)CN(C5CCC(=O)NC5=O)C6=O)CC4)CC3)c(C(C)C)n3ncnc(N)c23)cc1` (stereo not shown) [Example 5, 4-amino-6-((1-(5-(4-(2-(2,6-dioxopiperidin-3-yl)-1-oxoisoindolin-5-yl)piperazin-1-yl)pentanoyl)piperidin-4-yl)ethynyl)-7-isopropyl-N-(4-(methoxymethyl)phenyl)pyrrolo[2,1-f][1,2,4]triazine-5-carboxamide] the value was 79.9%; for `COCc1ccc(NC(=O)c2c(C#CC3CCN(C(=O)CCCCN4CCN(c5ccc6c(c5)C(=O)N(C5CCC(=O)NC5=O)C6)CC4)CC3)c(C(C)C)n3ncnc(N)c23)cc1` (stereo not shown) [Example 6, 4-amino-6-((1-(5-(4-(2-(2,6-dioxopiperidin-3-yl)-3-oxoisoindolin-5-yl)piperazin-1-yl)pentanoyl)piperidin-4-yl)ethynyl)-7-isopropyl-N-(4-(methoxymethyl)phenyl)pyrrolo[2,1-f][1,2,4]triazine-5-carboxamide], 97.3%.
Consider `COCc1ccc(NC(=O)c2c(C#CC3CCN(C(=O)CCCCN4CCC(c5ccc6c(c5)C(=O)N(C5CCC(=O)NC5=O)C6)CC4)CC3)c(C(C)C)n3ncnc(N)c23)cc1` (stereo not shown) [Example 7, 4-amino-6-((1-(5-(4-(2-(2,6-dioxopiperidin-3-yl)-3-oxoisoindolin-5-yl)piperidin-1-yl)pentanoyl)piperidin-4-yl)ethynyl)-7-isopropyl-N-(4-(methoxymethyl)phenyl)pyrrolo[2,1-f][1,2,4]triazine-5-carboxamide], for which the Dmax came to 90.1%.
For `COCc1ccc(NC(=O)c2c(C#CC3CCN(C(=O)CCCCN4CCC(c5ccc6c(c5)CN(C5CCC(=O)NC5=O)C6=O)CC4)CC3)c(C(C)C)n3ncnc(N)c23)cc1` (stereo not shown) [Example 8, 4-amino-6-((1-(5-(4-(2-(2,6-dioxopiperidin-3-yl)-1-oxoisoindolin-5-yl)piperidin-1-yl)pentanoyl)piperidin-4-yl)ethynyl)-7-isopropyl-N-(4-(methoxymethyl)phenyl)pyrrolo[2,1-f][1,2,4]triazine-5-carboxamide] the value was 86.3%.
Under `COCc1ccc(NC(=O)c2c(C#CC3CCN(C(=O)CN4CCC5(CC4)CCN(c4ccc6c(c4)CN(C4CCC(=O)NC4=O)C6=O)CC5)CC3)c(C(C)C)n3ncnc(N)c23)cc1` (stereo not shown) [Example 9, 4-amino-6-((1-(2-(9-(2-(2,6-dioxopiperidin-3-yl)-1-oxoisoindolin-5-yl)-3,9-diazaspiro[5.5]undecan-3-yl)acetyl)piperidin-4-yl)ethynyl)-7-isopropyl-N-(4-(methoxymethyl)phenyl)pyrrolo[2,1-f][1,2,4]triazine-5-carboxamide] stands 79.1%; under `COCc1ccc(NC(=O)c2c(C#CC3CCN(C(=O)CCN4CCC5(CC4)CCN(c4ccc6c(c4)CN(C4CCC(=O)NC4=O)C6=O)CC5)CC3)c(C(C)C)n3ncnc(N)c23)cc1` (stereo not shown) [Example 10, 4-amino-6-((1-(3-(9-(2-(2,6-dioxopiperidin-3-yl)-1-oxoisoindolin-5-yl)-3,9-diazaspiro[5.5]undecan-3-yl)propanoyl)piperidin-4-yl)ethynyl)-7-isopropyl-N-(4-(methoxymethyl)phenyl)pyrrolo[2,1-f][1,2,4]triazine-5-carboxamide], 78.9%.
